In the NIST ThermoML archive (doi:10.1016/j.fluid.2009.10.015):
± gives the expanded uncertainty stated by the source.

How the values were obtained:
[1] = Crystal; DTA
[2] = Molar enthalpy of transition or fusion; conditions: Crystal; DSC

- Normal melting temperature [1]: 312.00 ± 4 °C
- Molar enthalpy of transition or fusion [2]: 3.47 ± 0.112 kcal/mol
SMILES: CC(=O)c1ccc(C)c2ccccc12 [1-(4-methyl-1-naphthyl) ethanone]
